Experimental data published in ChEMBL document CHEMBL4840313, “Bioisosteric replacements of the indole moiety for the development of a potent and selective PI3Kδ inhibitor: Design, synthesis and biological evaluation” (Eur J Med Chem, 2021).

How the values were obtained:
[1] = Induction of apoptosis in human MOLM16 cells assessed as early apoptotic cells at 2 uM incubated for 48 hrs by Annexin V and propidium iodide Staining based assay (reference value: 16.4 %); assay type: functional, MOLM-16
KG-1 = test: Antiproliferative activity against human KG-1 cells assessed as reduction in cell viability measured after 48 hrs by CCK8 assay; assay type: functional, cell-based; details: KG-1, 48 h
[2] = Induction of cell cycle arrest in human MOLM16 cells assessed as accumulation at G1 phase at 5 uM incubated for 24 hrs by propidium iodide /RNase staining based flow cytometry(Rvb =46.8 %); assay type: functional, MOLM-16
[3] = Acute toxicity in ICR mouse assessed as damage in kidney at 90 mg/kg, po measured after 7 days by H&E staining based immunohistochemistry; assay type: organism-based; details: in vivo, 168 h, time 7 day
[4] = AUC (0 to infinity) in Sprague-Dawley rat at 10 mg/kg, po; assay type: ADME, organism-based; set-up: route oral, time infinity, dose 10 mg/kg; details: in vivo
[5] = Antiproliferative activity against p110 unexpressed human MM1.R cells assessed as reduction in cell viability measured after 48 hrs by CCK8 assay; assay type: functional; details: MM.1R
[6] = Induction of cell cycle arrest in human MOLM16 cells assessed as accumulation at G1 phase at 1 uM incubated for 24 hrs by propidium iodide /RNase staining based flow cytometry(Rvb =46.8 %); assay type: functional, MOLM-16
HL-60 = test: Antiproliferative activity against human HL-60 cells assessed as reduction in cell viability measured after 48 hrs by CCK8 assay; assay type: functional, cell-based; details: HL-60, 48 h
[7] = Acute toxicity in ICR mouse assessed as behavioral changes at 90 mg/kg, po administered for 7 days and observed for 7 days; assay type: organism-based; details: in vivo, 168 h, time 7 day
[8] = Acute toxicity in ICR mouse assessed as damage in heart at 90 mg/kg, po measured after 7 days by H&E staining based immunohistochemistry; assay type: organism-based; details: in vivo, 168 h, time 7 day
[9] = Oral bioavailability in Sprague-Dawley rat at 10 mg/kg; assay type: ADME, organism-based; details: in vivo
[10] = Acute toxicity in ICR mouse assessed as damage in spleen at 90 mg/kg, po measured after 7 days by H&E staining based immunohistochemistry; assay type: organism-based; details: in vivo, 168 h, time 7 day
[11] = Induction of cell cycle arrest in human MOLM16 cells assessed as accumulation at S phase at 5 uM incubated for 24 hrs by propidium iodide /RNase staining based flow cytometry(Rvb =31.8 %); assay type: functional, MOLM-16
[12] = Volume of distribution in steady state in Sprague-Dawley rat at 2 mg/kg, iv; assay type: ADME, organism-based; details: in vivo
[13] = Induction of cell cycle arrest in human MOLM16 cells assessed as accumulation at S phase at 1 uM incubated for 24 hrs by propidium iodide /RNase staining based flow cytometry(Rvb =31.8 %); assay type: functional, MOLM-16
[14] = Induction of cell cycle arrest in human MOLM16 cells assessed as accumulation at G2 phase at 1 uM incubated for 24 hrs by propidium iodide /RNase staining based flow cytometry(Rvb =14.7 %); assay type: functional, MOLM-16
[15] = MRT (0 to infinity) in Sprague-Dawley rat at 2 mg/kg, iv; assay type: ADME, organism-based; details: in vivo
[16] = Toxicity in BALB/c nude mouse xenografted with human MOLM16 cells assessed as change in body weight at 20 to 40 mg/kg, po administered once daily for 14 days; assay type: organism-based; details: in vivo, 336 h, dose 20-40 mg/kg, time 14 day
[17] = AUC (0 to t) in Sprague-Dawley rat at 10 mg/kg, po; assay type: ADME, organism-based; set-up: dose 10 mg/kg; details: in vivo
[18] = Acute toxicity in ICR mouse assessed as damage in lung at 90 mg/kg, po measured after 7 days by H&E staining based immunohistochemistry; assay type: organism-based; details: in vivo, 168 h, time 7 day
[19] = Tmax in Sprague-Dawley rat at 10 mg/kg, po; assay type: ADME, organism-based; details: in vivo
[20] = Antiproliferative activity against human MOLM16 cells assessed as reduction in cell viability measured after 48 hrs by CCK8 assay; assay type: functional, cell-based, MOLM-16; details: MOLM16, 48 h
[21] = Induction of apoptosis in human MOLM16 cells assessed as late apoptotic cells at 1 uM incubated for 48 hrs by Annexin V and propidium iodide Staining based assay (reference value: 6.77 %); assay type: functional, MOLM-16
[22] = Induction of cell cycle arrest in human MOLM16 cells assessed as accumulation at subG1 phase at 2 uM incubated for 24 hrs by propidium iodide /RNase staining based flow cytometry(Rvb =4.02 %); assay type: functional, MOLM-16
[23] = Induction of cell cycle arrest in human MOLM16 cells assessed as accumulation at G2 phase at 2 uM incubated for 24 hrs by propidium iodide /RNase staining based flow cytometry(Rvb =14.7 %); assay type: functional, MOLM-16
[24] = Induction of apoptosis in human MOLM16 cells assessed as viable cells at 2 uM incubated for 48 hrs by Annexin V and propidium iodide Staining based assay (reference value: 76.3 %); assay type: functional, MOLM-16; details: read-out: Activity
[25] = Cmax in Sprague-Dawley rat at 10 mg/kg, po; assay type: ADME, organism-based; set-up: route oral, dose 10 mg/kg; details: in vivo
[26] = Induction of cell cycle arrest in human MOLM16 cells assessed as accumulation at G1 phase at 2 uM incubated for 24 hrs by propidium iodide /RNase staining based flow cytometry(Rvb =46.8 %); assay type: functional, MOLM-16
[27] = Induction of apoptosis in human MOLM16 cells assessed as necrotic cells at 2 uM incubated for 48 hrs by Annexin V and propidium iodide Staining based assay (reference value: 0.44 %); assay type: functional, MOLM-16
[28] = Induction of apoptosis in human MOLM16 cells assessed as early apoptotic cells at 1 uM incubated for 48 hrs by Annexin V and propidium iodide Staining based assay (reference value: 16.4 %); assay type: functional, MOLM-16
[29] = Induction of cell cycle arrest in human MOLM16 cells assessed as accumulation at subG1 phase at 5 uM incubated for 24 hrs by propidium iodide /RNase staining based flow cytometry(Rvb =4.02 %); assay type: functional, MOLM-16
[30] = AUC (0 to t) in Sprague-Dawley rat at 2 mg/kg, iv; assay type: ADME, organism-based; set-up: dose 2 mg/kg; details: in vivo
[31] = Induction of apoptosis in human MOLM16 cells assessed as necrotic cells at 1 uM incubated for 48 hrs by Annexin V and propidium iodide Staining based assay (reference value: 0.44 %); assay type: functional, MOLM-16
[32] = Antitumor activity against human MOLM16 cells xenografted in BALB/c mouse assessed as tumor growth inhibition at 40 mg/kg, po administered daily for 14 days; assay type: functional, MOLM-16; details: 336 h, time 14 day, read-out: TGI
[33] = Induction of apoptosis in human MOLM16 cells assessed as necrotic cells at 5 uM incubated for 48 hrs by Annexin V and propidium iodide Staining based assay (reference value: 0.44 %); assay type: functional, MOLM-16
[34] = Induction of apoptosis in human MOLM16 cells assessed as viable cells at 1 uM incubated for 48 hrs by Annexin V and propidium iodide Staining based assay (reference value: 76.3 %); assay type: functional, MOLM-16; details: read-out: Activity
[35] = AUC (0 to infinity) in Sprague-Dawley rat at 2 mg/kg, iv; assay type: ADME, organism-based; set-up: time infinity, route intravenous, dose 2 mg/kg; details: in vivo
[36] = Induction of apoptosis in human MOLM16 cells assessed as late apoptotic cells at 5 uM incubated for 48 hrs by Annexin V and propidium iodide Staining based assay (reference value: 6.77 %); assay type: functional, MOLM-16
[37] = Induction of apoptosis in human MOLM16 cells assessed as early apoptotic cells at 5 uM incubated for 48 hrs by Annexin V and propidium iodide Staining based assay (reference value: 16.4 %); assay type: functional, MOLM-16
[38] = Half life in Sprague-Dawley rat at 10 mg/kg, po; assay type: ADME, organism-based; details: in vivo
[39] = Antitumor activity against human MOLM16 cells xenografted in BALB/c mouse assessed as tumor growth inhibition at 20 mg/kg, po administered daily for 14 days; assay type: functional, MOLM-16; details: 336 h, time 14 day, read-out: TGI
[40] = Acute toxicity in ICR mouse assessed as survival at 90 mg/kg, po administered for 7 days and observed for 7 days; assay type: organism-based; details: in vivo, 168 h, time 7 day
[41] = Half life in Sprague-Dawley rat at 2 mg/kg, iv; assay type: ADME, organism-based; details: in vivo
[42] = Induction of cell cycle arrest in human MOLM16 cells assessed as accumulation at S phase at 2 uM incubated for 24 hrs by propidium iodide /RNase staining based flow cytometry(Rvb =31.8 %); assay type: functional, MOLM-16
[43] = Induction of cell cycle arrest in human MOLM16 cells assessed as accumulation at G2 phase at 5 uM incubated for 24 hrs by propidium iodide /RNase staining based flow cytometry(Rvb =14.7 %); assay type: functional, MOLM-16
[44] = Acute toxicity in ICR mouse assessed as damage in liver at 90 mg/kg, po measured after 7 days by H&E staining based immunohistochemistry; assay type: organism-based; details: in vivo, 168 h, time 7 day
EOL1 = test: Antiproliferative activity against human EOL1 cells assessed as reduction in cell viability measured after 48 hrs by CCK8 assay; assay type: functional, cell-based; details: EOL1, 48 h
[45] = Induction of apoptosis in human MOLM16 cells assessed as viable cells at 5 uM incubated for 48 hrs by Annexin V and propidium iodide Staining based assay (reference value: 76.3 %); assay type: functional, MOLM-16; details: read-out: Activity
[46] = Induction of cell cycle arrest in human MOLM16 cells assessed as accumulation at subG1 phase at 1 uM incubated for 24 hrs by propidium iodide /RNase staining based flow cytometry(Rvb =4.02 %); assay type: functional, MOLM-16
[47] = Induction of apoptosis in human MOLM16 cells assessed as late apoptotic cells at 2 uM incubated for 48 hrs by Annexin V and propidium iodide Staining based assay (reference value: 6.77 %); assay type: functional, MOLM-16

O=S(=O)(Nc1cc(-c2cnc3[nH]ncc3c2)cnc1Cl)c1ccccc1
Activity [1]: 24.6% | IC50 (KG-1): 5.82 µM | Activity [2]: 49.2% | Activity [3]: Non-Toxic | AUC(0-inf) [4]: 9220 ng·h/mL | IC50 [5]: 23.1 µM | Activity [6]: 54.9% | IC50 (HL-60): 2.25 µM | Activity [7]: Non-Toxic | Activity [8]: Non-Toxic | bioavailability [9]: 17.6% | Activity [10]: Non-Toxic | Activity [11]: 30.1% | Vdss [12]: 2.12 L/kg | Activity [13]: 31.1% | Activity [14]: 11.8% | MRT [15]: 3.12 h | Activity [16]: Non-Toxic | AUC(0-t) [17]: 9040 ng·h/mL | Activity [18]: Non-Toxic | Tmax [19]: 4 h | IC50 [20]: 0.87 µM | Activity [21]: 13.6% | Activity [22]: 3.27% | Activity [23]: 10.8% | viability at 2 µM [24]: 57.8% | Cmax [25]: 1100 ng/mL | Activity [26]: 56.7% | Activity [27]: 1.47% | Activity [28]: 16% | Activity [29]: 11.1% | AUC(0-t) [30]: 10200 ng·h/mL | Activity [31]: 1.6% | inhibition in vivo at 40 mg/kg [32]: 49% | Activity [33]: 0.6% | viability at 1 µM [34]: 69.8% | AUC(0-inf) [35]: 10500 ng·h/mL | Activity [36]: 42.6% | Activity [37]: 46.1% | half-life [38]: 3.74 h | inhibition in vivo at 20 mg/kg [39]: 31% | Activity [40]: Non-Toxic | half-life [41]: 7.68 h | Activity [42]: 28.6% | Activity [43]: 8.07% | Activity [44]: Non-Toxic | IC50 (EOL1): 2.82 µM | viability at 5 µM [45]: 10.7% | Activity [46]: 3.5% | Activity [47]: 16.1%
